Values of other authors as cited in patent publication US20250213503A1, “TREATMENT OF CANCER WITH S1P RECEPTOR AGONISTS” (PRIOTHERA SAS, priority 2022, published 2025).

Target: S1PR1 (Homo sapiens, UniProt P21453)
Sequence (P21453 whole entry, species assumed): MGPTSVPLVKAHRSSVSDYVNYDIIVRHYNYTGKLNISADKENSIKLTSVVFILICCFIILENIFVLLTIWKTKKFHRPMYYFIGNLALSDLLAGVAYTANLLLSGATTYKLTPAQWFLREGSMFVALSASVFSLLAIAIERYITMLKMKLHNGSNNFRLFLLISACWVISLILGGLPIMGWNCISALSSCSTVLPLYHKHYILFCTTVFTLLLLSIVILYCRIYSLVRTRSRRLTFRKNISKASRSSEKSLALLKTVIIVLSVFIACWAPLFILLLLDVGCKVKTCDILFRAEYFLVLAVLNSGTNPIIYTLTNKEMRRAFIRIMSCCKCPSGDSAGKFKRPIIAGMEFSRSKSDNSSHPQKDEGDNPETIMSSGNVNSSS

In the case of `CCCCCCCCc1ccc(CCC(N)(CO)CO)cc1` [FTY720], the “selectivity for S1PR1 versus S1PR3-5” value is given as “poor selectivity for S1PR1 versus S1PR3-5”.
